Experimental findings from US7414070B2, “Indol-7-YL sulfonamide derivatives, their preparation and their use in pharmaceutical compositions” (Laboratorios del Dr. ESTEVE S.A., priority 2003, dated 2008) are described below.

A word on the melting point: it is the temperature of the solid-liquid transition.

Structures can show the parent of a compound that is named as a salt.

The compound `O=S(=O)(Nc1cccc2ccn(CCN3CCCC3)c12)c1c(Cl)nc2sccn12` (as salt: TFA) [Example 7, 6-chloro-N-(1-(2-(pyrrolidin-1-yl)ethyl)-1H-indol-7-yl)imidazo[2,1-b]thiazole-5-sulfonamide] displayed a melting point of 92 to 95 °C.
For `Cc1c(S(=O)(=O)Nc2cccc3ccn(CCN(C)C)c23)sc2ccc(Cl)cc12` [Example 2, N-[1-(2-dimethylaminoethyl)-1H-indole-7-yl]-5-chloro-3-methyl-benzo[b]thiophene-2-sulfonamide] the value was 57 to 65 °C; for `CN(C)CCn1ccc2cccc(NS(=O)(=O)c3ccc(-c4ccccc4)cc3)c21` [Example 3, N-[1-(2-dimethylaminoethyl)-1H-indole-7-yl]-4 phenylbenzenesulfonamide], 137 to 140 °C.
With `CN(C)CCn1ccc2cccc(NS(=O)(=O)c3c(Cl)nc4sccn34)c21` [Example 4, N-[1-(2-dimethylaminoethyl)-1H-indole-7-yl]-6-chloroimidazo[2,1-b]thiazole-5-sulfonamide], the melting point is 73 to 76 °C.
With `O=S(=O)(Nc1cccc2ccn(CCN3CCCC3)c12)c1cccc2ccccc12` [Example 6, N-(1-(2-(pyrrolidin-1-yl)ethyl)-1H-indol-7-yl)naphthalene-1-sulfonamide], the melting point was 196 to 199 °C.
For `O=S(=O)(CCc1cccc2ccccc12)Nc1cccc2ccn(CCN3CCCC3)c12` [Example 8, 2-(naphth-1-yl)-N-(1-(2-(pyrrolidin-1-yl)ethyl)-1H-indol-7-yl)ethansulfonamide] the value was 46 to 49 °C.
